From patent publication US20260294863A1, “METHOD OF TREATING FIBROTIC-RELATED CONDITION” (YISSUM RESEARCH DEVELOPMENT COMPANY OF THE HEBREW …, priority 2023, published 2026)
Entries after “also recorded” stand apart in the source; their conditions may differ.

Experiments:
[1] = system: non-alcoholic steatohepatitis (NASH); conditions: 1 mg/kg/day, two months, micro-osmotic pumps; cited from earlier work
IL-6 = IL-6 in bronchial fluid, bleomycin-induced lung fibrosis (ELISA); type: in vivo, C57BL/6JOlaHsd mice; conditions: AN1284 2.5 mg/kg/day, bleomycin, males; 2.5 mg/kg/day
Experimental: (§1) The animal model of bleomycin-induced lung fibrosis is widely used to characterize the potential inhibitory effect of newly developed drugs (Distler et al. 2019). Experiments were performed in C57BL/6JOlaHsd male and female mice aged 12-13 weeks. Male mice weighed 23-27.3 g and female mice, 19.4-21.1 g. They were housed under pathogen-free conditions, up to 6 per cage, in IVC cages under a controlled temperature of 22-24° C., humidity and alternating 12-h light/dark cycles and provided with food and water ad libitum. In order to minimize the stress of daily injection, ladostigil (5 mg/Kg/day) was administered by micro-osmotic pumps, implanted subcutaneously under ketamine/xylazine anesthesia, 5 days before administration of bleomycin, and delivered for 3 weeks to mice of each sex. Saline (2-3/sex) and bleomycin controls were anesthetized as described above. Bleomycin solution (0.25 mg/kg in 50 μl) was instilled into the lumen of the trachea as shown in a video by Ehrentraut et al. (2019). […] TNFα and IL-6 in the bronchial fluid lavage was measured by ELISA as described in the preceding section.
(§2) Experiments were performed in C57BL/6JOlaHsd male mice aged 12-13 weeks as described for ladostigil. […] Fibrosis was measured by staining with Sirius red as described for ladostigil. TNFα and IL-6 in the bronchial fluid lavage was measured by ELISA as described for ladostigil.

Activator protein-1 = conditions: cited from earlier work
[2] = Body weight in bleomycin-induced lung fibrosis; type: in vivo, C57BL/6JOlaHsd mice; conditions: AN1284 2.5 mg/kg/day, days 11 and 14 after bleomycin, males
Experimental: (§3) The animal model of bleomycin-induced lung fibrosis is widely used to characterize the potential inhibitory effect of newly developed drugs (Distler et al. 2019). Experiments were performed in C57BL/6JOlaHsd male and female mice aged 12-13 weeks. Male mice weighed 23-27.3 g and female mice, 19.4-21.1 g. They were housed under pathogen-free conditions, up to 6 per cage, in IVC cages under a controlled temperature of 22-24° C., humidity and alternating 12-h light/dark cycles and provided with food and water ad libitum. In order to minimize the stress of daily injection, ladostigil (5 mg/Kg/day) was administered by micro-osmotic pumps, implanted subcutaneously under ketamine/xylazine anesthesia, 5 days before administration of bleomycin, and delivered for 3 weeks to mice of each sex. Saline (2-3/sex) and bleomycin controls were anesthetized as described above. Bleomycin solution (0.25 mg/kg in 50 μl) was instilled into the lumen of the trachea as shown in a video by Ehrentraut et al. (2019). […] Mice were weighed daily and sacrificed on day 21. Bronchial fluid was collected as described in Ehrentraut et al. (2019). TNFα and IL-6 in the bronchial fluid lavage was measured by ELISA as described in the preceding section.
(§4) Experiments were performed in C57BL/6JOlaHsd male mice aged 12-13 weeks as described for ladostigil. AN1284 (2.5 mg/kg/day) was administered by micro-osmotic pumps, implanted subcutaneously under ketamine/xylazine anesthesia, 5 days before administration of bleomycin and delivered for 3 weeks. Mice were weighed daily, sacrificed on day 21 and bronchial fluid was collected. Fibrosis was measured by staining with Sirius red as described for ladostigil. TNFα and IL-6 in the bronchial fluid lavage was measured by ELISA as described for ladostigil.

[3] = system: LPS-activated macrophages; conditions: cited from earlier work
[4] = system: cytotoxicity resulting from oxidative stress; conditions: cited from earlier work
Egr1 = Egr1 in RAW cells activated by LPS; type: cell-based
Experimental: (§5) RAW 264.7 cells were seeded at a density of 1×10^5 cells per well in 48-well culture plates and grown overnight in DMEM supplemented as indicated above. The wells were washed with PBS (pH 7.4). AN1284, prepared in sterile double distilled water and Budesonide (positive control) were added to give final concentrations ranging from 1× 10^−13-1×10^−7M in medium containing 2% FCS. The cells were incubated for 2 h at 37° C. prior to stimulation with LPS, 2.5 μg/mL from Escherichia coli (Sigma-Aldrich serotype 0111: B4). Supernatants were harvested after 8 hrs for measurement of TNF-α and 24 h for IL-6. TNF-α and IL-6 protein were detected by a commercial ELISA kit (Biolegend, San Diego, CA, USA) according to the manufacturer's instructions. Each concentration of each compound was tested in two-three separate experiments in 6 wells per concentration.
(§6) RAW 264.7 cells were lysed in 0.1 ml of buffer containing 150 mM Tris-Cl (pH 6.8), 10% Glycerol, 0.6% SDS, Bromophenol Blue and 100 mM β-Mercaptoethanol. Lysates were collected and heated at 95° C. for 5 min, then centrifuged for 3 min at 2,240 g. Supernatants were used for gel separation. Protein concentration of the lysates was determined by using Coomassie Brilliant Blue staining. […] Molecular changes were assessed semi-quantitatively after incubation with primary antibodies for relevant proteins.

[5] = system: bleomycin-induced lung fibrosis; test: Lung fibrosis score / collagen content in bleomycin-induced lung fibrosis; type: in vivo, C57BL/6JOlaHsd mice
Experimental: as §3
Specimens taken from the left lung were embedded in paraffin and cut into 5 μm-thick slices. They were put on slides and paraffin was removed. They were rehydrated and stained with a solution of Sirius red (100 mg/100 ml of [COMPOUND LEFT OUT], rinsed in distilled water until clear, dehydrated and mounted in a resinous medium. The red stain (also called “Sirius red” stain) is one of the best understood histochemical techniques. It relies on the birefringent properties of collagen and is much more specific than the other common collagen stains, Pulmonary fibrosis was evaluated on a score of 0-4 on 15-20 different fields taken from each lung section, according to the area and intensity of fibrotic staining in the field, excluding that in blood vessels. Two independent scientists blinded to the treatment performed the analysis. For TGFβ1 staining, slides were deparaffinized and rehydrated. Antigen retrieval was performed in Tris-based buffer, pH 9.0. Endogenous peroxidase activity was quenched by incubation in 3% H2O2. The tissue was permeabilized with Triton X-100 0.1% in PBS. After blocking, sections were incubated with primary antibody: diluted rabbit recombinant monoclonal TGFβ1 antibody (Abcam ab215715) over night, at 4° C. Slices were further incubated with the secondary antibody: ImmPRESS®-HRP Goat Anti-Rabbit IgG Polymer Detection Kit, Peroxidase (Vector labs VE-MP-7451-15) at room temperature. For color development, sections were incubated in peroxidase substrate solution DAB, at room temperature until desired stain intensity developed. They were then counterstained with filtered hematoxylin and cosin, cleared and mounted.
as §4

[6] = system: Aryl hydrocarbon receptor (AhR); conditions: 1 mg/kg/day, two months, NASH mice; cited from earlier work
NLRP3 = NLRP3 in RAW cells activated by LPS; type: cell-based
Experimental: as §5, §6

TNFα [7] = test: TNFα in bronchial fluid, bleomycin-induced lung fibrosis (ELISA); type: in vivo, C57BL/6JOlaHsd mice; conditions: AN1284 2.5 mg/kg/day, bleomycin, males; 2.5 mg/kg/day
Experimental: as §1, §2

Nrf2 = Nrf2 in RAW cells activated by LPS; type: cell-based
Experimental: as §5, §6

MAPK p38 = conditions: cited from earlier work
[8] = Mortality in bleomycin-induced lung fibrosis; type: in vivo, C57BL/6JOlaHsd mice; conditions: bleomycin alone
Experimental: as §3, with “In order to minimize the stress of daily injection, ladostigil (5 mg/Kg/day) was administered by micro-osmotic pumps, implanted subcutaneously under ketamine/xylazine anesthesia, 5 days before administration of bleomycin, and delivered for 3 weeks to mice of each sex.” left out

skin sclerosis = test: Dermal and hypodermal thickness in bleomycin-induced skin sclerosis; type: in vivo, C57BL/6 mice; conditions: bleomycin treatment
Experimental: (§7) Male C57BL/6 mice aged 8 weeks were housed under pathogen-free conditions at a controlled temperature of 22-24° C., humidity and alternating 12-h light/dark cycles and provided with food and water ad libitum. Skin sclerosis was induced as described by Ravanetti et al, (2020). A small incision was made in the skin at the back caudal to the scapulae and subcutaneous pocket was created into which an Alzet micro-osmotic pump was implanted, and the incision closed with two stiches and a surgical clip. The pumps contained bleomycin, (delivered at the rate of 60 U/kg body weight) or saline (control) and were removed 10 days after implantation. The mice were monitored daily until they recovered completely and weighed twice weekly from the beginning of the experiment.
(§8) Ladostigil (10 mg/kg/day) was administered in the drinking fluid to 10 mice, housed 2/cage, from 3 days before bleomycin pump installation until the end of the experiment. The fluid intake of the mice was measured daily. The dose of ladostigil was adjusted accordingly. Bleomycin alone, (10 mice) and saline controls (6 mice) received regular drinking fluid.
Skin was harvested on the gluteal region to avoid dermal fibrosis artifact due to proximity to the site of implant. For histological assessment, the samples were dehydrated in a graded ethanol series, clarified in xylene, and paraffin embedded. They were mounted on slides and paraffin was removed. Sections of 5 μm thickness were cut with a rotary microtome and stained with hematoxylin and eosin (H&E)

[9] = Body weight in bleomycin-induced skin sclerosis; type: in vivo, C57BL/6 mice; conditions: bleomycin, days 24-27
Experimental: as §7, §8

IL1β = test: Secretion of IL1β from BzATP/LPS-activated microglia (ELISA); type: cell-based, Balb/C mice
Experimental: (§9) Experiments were performed on primary microglial cells isolated from brains of neonatal Balb/C mice as previously described (Reichert and Rotshenker, 2003). The brains were stripped of their meninges and enzymatically dissociated. Cells were plated on Poly-L-lysine coated flasks for one week, re-plated for 1- to 2-hr on bacteriological plates and non-adherent cells were washed away. Microglia were propagated by incubation in 20% of medium, conditioned by the L-cell line that produces mouse-CSF. They were identified by morphology and positive immune-reactivity to P2y12, F4/80, complement receptor-3 and Galectin-3/MAC-2 (Reichert and Rotshenker 2003; Gitik et al. 2011).
(§10) Cytokines were measured as previously described (Shamash et al. 2002) using ELISA Max deluxe set (Biolegend, CA, USA) for secreted TNFα and IL-6 proteins and ELISA DuoSet (R&D systems, UK) for secreted and cell associated IL-1β, according to manufacturer's instructions.
(§11) The effect of ladostigil at concentrations of 1×10^−13 M to 1×10^−9 M on the secretion of cytokine proteins was assessed by adding it to microglia for 2 hr before LPS (0.75 μg/ml) and BzATP (400 μM). Other microglia were treated similarly with the steroid, budesonide as a reference standard at concentrations of 1× 10^−13 to 1× 10^−11 M. Measurements of cytokine secretion were performed 8 hrs after addition of LPS and BzATP. Since the levels of secreted IL-1β were still low, samples were concentrated 2- to 4-fold by an Amicon ultra-centrifugal filter device (Merck-Millipore, Ireland). ELISA was used to quantify the levels of cytokine proteins. Protein content in the microglia lysate was measured by Bradford and levels of cytokines were calculated and presented as pg/μg of microglial protein.

IL6 = test: Secretion of IL6 from BzATP/LPS-activated microglia (ELISA); type: cell-based, Balb/C mice; conditions: all concentrations tested
Experimental: as §9, §10, §11

TNFα [10] = test: Secretion of TNFα from BzATP/LPS-activated microglia (ELISA); type: cell-based, Balb/C mice; conditions: all concentrations tested, added 2 hrs before BzATP and LPS, 0.1% BSA; p<0.01
Experimental: as §9, §10, §11

Which results are given for `CC(C)NCCCN1CCc2ccccc21.Cl.Cl` [AN1284, 3-(indolin-1-yl)-N-isopropylpropan-1-amine 2HCl]?
steatosis, lipogenesis, and fibrosis [1]: attenuated steatosis, lipogenesis, and fibrosis; IL-6 in bronchial fluid (IL-6): does not affect levels of pro-inflammatory cytokines; also recorded: did not reduce; nuclear translocation of Activator protein-1 (Activator protein-1): inhibiting phosphorylation of MAPK p38 and nuclear translocation of Activator protein-1; body weight loss [2]: reduced body weight loss; release of pro-inflammatory cytokines [3]: reduced the release of pro-inflammatory cytokines; cytotoxicity resulting from oxidative stress [4]: inhibited cytotoxicity; Egr1 (Egr1; LPS + AN1284 0.1 nM, LPS + vehicle 2.7): 1.3; EGR1 (Egr1; LPS-activated macrophages): reduced ERG1 in macrophages; collagen levels / fibrosis score ([5]; AN1284 2.5 mg/kg/day by micro-osmotic pumps, males): reduced fibrosis score; fibrosis (overall conclusion) ([5]; bleomycin-induced lung fibrosis murine model): shown to reduce fibrosis; activation of AhR [6]: activation of the Aryl hydrocarbon receptor (AhR); NLRP3 (NLRP3; LPS + AN1284 0.1 nM, LPS + vehicle 1.6): 1.1; expression of NLRP3 (NLRP3; LPS-activated RAW cells): effectively reduce expression of NLRP3; TNFα in bronchial fluid (TNFα [7]): does not affect levels of pro-inflammatory cytokines; also recorded: did not reduce; Nrf2 (Nrf2; LPS + AN1284 0.1 nM, LPS + vehicle 2.3): 1.6; expression of Nrf2 (Nrf2; LPS-activated RAW cells): decreased the expression of Nrf2; phosphorylation of MAPK p38 (MAPK p38): inhibiting phosphorylation of MAPK p38

For bleomycin [reference compound], which mortality ([8]; females, days 7 to 17 (6/38)) is on record?
Its mortality is 16%.

What about the mortality ([8]; males, days 16-19 (5/16)) of the same compound?
Its mortality is 31%.

And the “hypodermis thickness change caused” value (skin sclerosis)?
Its value is “thinning of the hypodermis”.

And the “skin (dermal) thickness change caused” value (skin sclerosis)?
The value was “thickening”.

And the “weight gain compared with saline” value [9]?
The value was “smaller increase in weight”.

Which results are given for `CCCC1O[C@@H]2C[C@H]3[C@@H]4CCC5=CC(=O)C=C[C@]5(C)[C@H]4[C@@H](O)C[C@]3(C)[C@]2(C(=O)CO)O1` (stereo partly drawn) [budesonide, reference compound]?
reduction of IL1β release (IL1β; all concentrations tested, added 2 hrs before BzATP and LPS, 0.1% BSA, p<0.01): reduced the 3 cytokines significantly; reduction of IL1β compared with reduction of TNFα (IL1β; ladostigil 1×10^−9 M, budesonide 1×10^−11 M): greater than that of TNFα; reduction of IL6 release (IL6; added 2 hrs before BzATP and LPS, 0.1% BSA, p<0.01): reduced the 3 cytokines significantly; reduction of IL6 compared with reduction of TNF (IL6; p<0.001): greater than those of TNF; reduction of TNFα release (TNFα [10]): reduced the 3 cytokines significantly
